Laboratory results reported in patent publication US20240139211A1, “METHODS AND COMPOSITIONS FOR TREATING AMYOTROPHIC LATERAL SCLEROSIS” (Amylyx Pharmaceuticals, Inc., priority 2022, published 2024).
Read-outs that look alike come from different tables or passages of the source.

What was measured:
human hepatocytes = assay: Cytotoxicity of six test articles in hepatocyte cultures (MTS); conditions: for Concentrations at which not hepatotoxic: Donor 1, 72±2 hours
MATE2K = MATE2K (Homo sapiens, UniProt Q86VL8); assay: Substrate of MATE2-K, uptake in HEK293 cells
Chain of MATE2K (Q86VL8 1-566 isoform Q86VL8-3): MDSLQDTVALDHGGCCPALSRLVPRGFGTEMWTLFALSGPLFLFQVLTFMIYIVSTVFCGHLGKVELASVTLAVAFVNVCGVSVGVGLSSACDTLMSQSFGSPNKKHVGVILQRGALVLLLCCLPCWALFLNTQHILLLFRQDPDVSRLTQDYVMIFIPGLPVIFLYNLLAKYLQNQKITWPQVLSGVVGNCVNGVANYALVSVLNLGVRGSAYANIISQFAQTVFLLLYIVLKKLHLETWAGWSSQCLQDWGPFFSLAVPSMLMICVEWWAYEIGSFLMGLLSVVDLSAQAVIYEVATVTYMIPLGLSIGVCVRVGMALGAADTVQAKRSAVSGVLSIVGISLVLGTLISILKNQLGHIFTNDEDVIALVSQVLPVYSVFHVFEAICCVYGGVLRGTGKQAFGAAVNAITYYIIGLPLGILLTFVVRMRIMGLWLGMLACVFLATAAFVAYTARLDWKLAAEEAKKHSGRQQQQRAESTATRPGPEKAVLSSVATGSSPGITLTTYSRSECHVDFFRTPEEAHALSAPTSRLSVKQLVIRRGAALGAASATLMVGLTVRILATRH
Excerpt: (§1) Vector-transfected HEK cells were used as a control.

OCT1 = biological target: T1, OCT1 (Homo sapiens, UniProt O15245); assay: Inhibitor of OCT1, probe substrate uptake; conditions: for Inhibition of OCT1 / Inhibitor of OCT1: two concentrations per test article; for potency estimated from few doses: read-out: Estimated IC50, OCT1
T1 sequence (O15245 1-554): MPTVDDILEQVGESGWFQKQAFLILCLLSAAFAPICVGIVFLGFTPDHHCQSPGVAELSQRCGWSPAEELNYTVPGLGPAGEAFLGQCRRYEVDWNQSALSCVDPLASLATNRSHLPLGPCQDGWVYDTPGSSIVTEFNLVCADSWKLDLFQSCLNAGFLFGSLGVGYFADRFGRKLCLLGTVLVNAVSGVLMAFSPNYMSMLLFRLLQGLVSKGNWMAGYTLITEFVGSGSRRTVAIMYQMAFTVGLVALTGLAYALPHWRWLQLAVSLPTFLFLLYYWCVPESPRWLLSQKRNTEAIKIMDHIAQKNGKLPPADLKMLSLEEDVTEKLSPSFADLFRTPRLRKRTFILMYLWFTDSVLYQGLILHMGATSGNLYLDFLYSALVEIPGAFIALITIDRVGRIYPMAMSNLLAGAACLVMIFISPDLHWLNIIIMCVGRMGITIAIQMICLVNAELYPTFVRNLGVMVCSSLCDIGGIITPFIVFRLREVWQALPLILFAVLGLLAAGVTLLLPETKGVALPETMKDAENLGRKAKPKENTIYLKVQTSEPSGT

Caco-2 cells = conditions: for Permeability in Caco-2 cell assay: 1 and 10 μM (tauroursodeoxycholic acid: 10 μM)
BCRP = biological target: T2, BCRP (Homo sapiens, UniProt Q9UNQ0); assay: Inhibitor of BCRP, 3H-estrone-3-sulfate efflux in Caco-2 cells
T2 sequence (Q9UNQ0 1-655): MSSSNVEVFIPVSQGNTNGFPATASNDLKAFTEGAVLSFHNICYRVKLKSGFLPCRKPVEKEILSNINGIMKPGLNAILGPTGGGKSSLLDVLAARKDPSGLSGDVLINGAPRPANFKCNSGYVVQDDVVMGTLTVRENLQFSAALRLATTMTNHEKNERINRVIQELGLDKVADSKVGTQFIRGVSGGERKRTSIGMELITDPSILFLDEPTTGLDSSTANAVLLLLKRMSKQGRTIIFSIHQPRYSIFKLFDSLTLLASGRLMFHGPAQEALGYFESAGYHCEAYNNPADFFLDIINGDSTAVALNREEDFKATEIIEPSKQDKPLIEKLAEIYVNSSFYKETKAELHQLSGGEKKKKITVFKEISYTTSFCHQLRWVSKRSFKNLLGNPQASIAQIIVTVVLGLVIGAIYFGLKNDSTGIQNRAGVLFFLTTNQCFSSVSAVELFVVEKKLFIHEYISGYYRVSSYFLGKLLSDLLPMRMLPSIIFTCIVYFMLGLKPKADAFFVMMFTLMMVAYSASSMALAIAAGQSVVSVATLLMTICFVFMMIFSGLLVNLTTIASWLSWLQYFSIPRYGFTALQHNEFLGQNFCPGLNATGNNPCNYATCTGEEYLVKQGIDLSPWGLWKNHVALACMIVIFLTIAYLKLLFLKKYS

OCT2 = biological target: T3, OCT2 (Homo sapiens, UniProt O15244); assay: Inhibitor of OCT2, probe substrate uptake; conditions: for Inhibition of OCT2 / Inhibitor of OCT2: two concentrations per test article
T3 sequence (O15244 1-555): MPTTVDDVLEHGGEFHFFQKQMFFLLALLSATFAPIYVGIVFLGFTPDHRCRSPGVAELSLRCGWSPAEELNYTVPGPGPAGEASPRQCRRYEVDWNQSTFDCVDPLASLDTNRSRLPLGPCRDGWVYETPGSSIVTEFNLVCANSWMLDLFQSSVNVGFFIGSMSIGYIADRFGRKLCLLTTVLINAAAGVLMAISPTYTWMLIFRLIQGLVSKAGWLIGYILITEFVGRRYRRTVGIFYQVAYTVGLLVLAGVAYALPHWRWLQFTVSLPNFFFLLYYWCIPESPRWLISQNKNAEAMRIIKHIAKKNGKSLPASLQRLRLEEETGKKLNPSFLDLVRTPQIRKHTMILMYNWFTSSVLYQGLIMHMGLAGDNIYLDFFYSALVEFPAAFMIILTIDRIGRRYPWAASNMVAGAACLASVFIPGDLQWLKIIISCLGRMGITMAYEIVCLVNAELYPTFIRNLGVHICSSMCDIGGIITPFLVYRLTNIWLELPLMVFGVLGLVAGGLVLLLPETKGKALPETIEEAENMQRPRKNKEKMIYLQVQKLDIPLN

OATP1B3 = OATP1B3 (Homo sapiens, UniProt Q9NPD5); assay: Substrate of OATP1B3, uptake in HEK293 cells
Chain of OATP1B3 (Q9NPD5 whole entry): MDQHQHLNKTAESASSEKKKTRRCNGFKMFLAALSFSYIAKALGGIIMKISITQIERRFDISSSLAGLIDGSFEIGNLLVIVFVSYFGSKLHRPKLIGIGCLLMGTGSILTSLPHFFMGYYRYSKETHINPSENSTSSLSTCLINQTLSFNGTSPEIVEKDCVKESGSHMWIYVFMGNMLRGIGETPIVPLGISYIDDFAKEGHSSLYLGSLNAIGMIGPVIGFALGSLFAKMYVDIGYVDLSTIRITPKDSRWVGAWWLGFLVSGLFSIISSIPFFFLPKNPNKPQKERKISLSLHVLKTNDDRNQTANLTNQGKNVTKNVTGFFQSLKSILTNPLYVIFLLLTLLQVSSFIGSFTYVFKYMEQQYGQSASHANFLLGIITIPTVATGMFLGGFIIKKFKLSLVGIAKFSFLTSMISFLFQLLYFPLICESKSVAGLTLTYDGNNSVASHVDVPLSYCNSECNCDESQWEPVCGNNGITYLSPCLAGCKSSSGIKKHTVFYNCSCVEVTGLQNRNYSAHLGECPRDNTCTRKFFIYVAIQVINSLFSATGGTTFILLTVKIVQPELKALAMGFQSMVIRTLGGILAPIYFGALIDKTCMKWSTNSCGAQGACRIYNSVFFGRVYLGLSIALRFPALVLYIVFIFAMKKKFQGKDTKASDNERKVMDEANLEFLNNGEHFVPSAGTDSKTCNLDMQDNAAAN
Excerpt: as §1

OAT3 = biological target: T4, OAT3 (Homo sapiens, UniProt Q8TCC7); assay: Substrate of OAT3, uptake in HEK293 cells
T4 sequence (Q8TCC7 1-542): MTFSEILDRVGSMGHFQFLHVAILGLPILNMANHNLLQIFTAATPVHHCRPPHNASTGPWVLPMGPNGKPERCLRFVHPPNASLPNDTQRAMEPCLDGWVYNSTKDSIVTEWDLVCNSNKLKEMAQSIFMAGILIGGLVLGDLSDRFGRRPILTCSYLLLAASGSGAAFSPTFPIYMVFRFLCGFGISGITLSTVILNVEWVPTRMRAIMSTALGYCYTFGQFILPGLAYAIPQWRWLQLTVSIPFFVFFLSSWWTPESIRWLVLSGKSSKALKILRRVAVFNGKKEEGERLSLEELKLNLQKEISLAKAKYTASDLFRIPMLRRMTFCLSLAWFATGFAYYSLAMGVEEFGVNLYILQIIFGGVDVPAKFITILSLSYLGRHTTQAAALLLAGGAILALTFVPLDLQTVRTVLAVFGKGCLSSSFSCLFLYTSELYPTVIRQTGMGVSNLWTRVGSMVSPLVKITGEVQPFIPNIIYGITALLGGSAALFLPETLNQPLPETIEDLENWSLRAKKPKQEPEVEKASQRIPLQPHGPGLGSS
Excerpt: as §1

[1] = Caco-2, two concentrations per test article
[2] = higher test concentration (UDCA: second assay)
[3] = lower test concentration (UDCA: second assay)
[4] = two concentrations per test article, Caco-2 cells
[5] = 1 and 10 μM, transport buffer alone

Molecule | Concentrations at which not hepatotoxic (human hepatocytes) [µM] | Inhibition of OCT1 (OCT1) | Inhibitor of OCT1 (OCT1) | Permeability in Caco-2 cell assay (Caco-2 cells) | Inhibitor of BCRP (BCRP; [1]) | Remaining BCRP activity, % of the control (BCRP; [2]) [%] | Remaining BCRP activity, % of the control (BCRP; [3]) [%] | Inhibitor of BCRP (BCRP; [4]) | Inhibition of OCT2 (OCT2) | Inhibitor of OCT2 (OCT2) | Substrate of MATE2-K (MATE2K; 1 and 10 μM) | Substrate of MATE2-K (MATE2K; test article 1 and 10 μM) | Substrate of OATP1B3 (OATP1B3; 1 and 10 μM) | Substrate of OATP1B3 (OATP1B3; test article 1 and 10 μM) | Substrate of OAT3 (OAT3; 1 and 10 μM) | Substrate of OAT3 (OAT3; test article 1 and 10 μM) | further results
O=C(O)CCCc1ccccc1 [PB, sodium phenylbutyrate] | ≤ 250 | did not inhibit | No | high permeability | not an inhibitor | 84.7 | 125 | No | did not inhibit | No |  |  |  |  |  |  | Decrease of MATE2-K uptake by known inhibitor (MATE2K; human, 2 min): > 25%; Uptake in MATE2-K cells (MATE2K; human, 2 min): 27.5 pmol/minute/mg protein
C[C@H](CCC(=O)NCC(=O)O)[C@H]1CC[C@H]2[C@@H]3[C@@H](O)C[C@@H]4C[C@H](O)CC[C@]4(C)[C@H]3CC[C@]12C [Glycoursodeoxycholic acid, glycoursodeoxycholic acid] | ≤ 100 | did not inhibit | No | moderate permeability | identified as an inhibitor |  |  | Yes | did not inhibit | No |  |  |  |  |  |  | potency estimated from few doses (BCRP; read-out: Estimated IC50, BCRP, estimated from two concentrations, Caco-2 cells): > 100 µM
O=C(O)Cc1ccccc1 [Phenylacetic acid, phenylacetic acid] | ≤ 500 | did not inhibit | No | high permeability | not an inhibitor | 199 | 162 | No | inhibited | Yes | identified as a substrate | Yes | identified as a substrate | Yes | not a substrate | No | Net MATE2-K uptake remaining with inhibitor (MATE2K; 10 μM): 64.1%; Uptake in MATE2-K cells (MATE2K; 10 μM): 84.2 pmol/min/mg; Uptake in OATP1B3 cells (OATP1B3; 1 μM): 5.27 pmol/minute/mg protein; Net OATP1B3 uptake remaining with inhibitor (OATP1B3; 10 μM): 79.0%; Uptake in OATP1B3 cells (OATP1B3; 10 μM): 19.3 pmol/min/mg; Uptake activity remaining, OCT2 (OCT2; 7500 μM): 24.5%; potency estimated from few doses (OCT2; read-out: Estimated IC50, OCT2, estimated from two concentrations): < 7500 µM
tauroursodeoxycholic acid [TUDCA] | 550 | did not inhibit | No | moderate in both directions | not an inhibitor | 92.3 | 111 | No | did not inhibit | No | not a substrate | No |  | Yes |  | Yes | Uptake by OATP1B3 (OATP1B3; 1 and 10 μM): 5.90 pmol/minute/mg protein; Papp basolateral to apical (Caco-2 cells; 1 μM): 8.17 ×10⁻⁶ cm/s; Papp apical to basolateral (Caco-2 cells; 10 μM): 2.43 ×10⁻⁶ cm/s; Papp basolateral to apical (Caco-2 cells; 10 μM): 3.6 ×10⁻⁶ cm/s; Uptake by OAT3 (OAT3; 1 and 10 μM): ≥ 9.27 pmol/minute/mg protein
ursodeoxycholic acid | ≤ 250 | inhibited | Yes | high in both directions | not an inhibitor | 155 | 228 | No | did not inhibit | No | not a substrate | No | not a substrate | No | not a substrate | No | Effect on cell viability (human hepatocytes; Donor 1, 500 μM): affected cell viability; potency estimated from few doses (OCT1; estimated from two concentrations): < 500 µM; potency estimated from few doses (OCT1; estimated from two doses): < 500 µM; Apparent permeability in both directions (Caco-2 cells; 1 and 10 μM): > 18 ×10⁻⁶ cm/s; Papp apical to basolateral (Caco-2 cells; [5]): ≥ 18.9 ×10⁻⁶ cm/s; Papp basolateral to apical (Caco-2 cells; [5]): ≥ 22.8 ×10⁻⁶ cm/s; BCRP activity, % of the control (BCRP; first assay, 500 μM): 130%
